Source: paper doi:10.1101/2022.03.11.483894v1, “Structure and function of diadenylate cyclase DacM from Mycoplasma ovipneumoniae” (biorxiv, 2022)

Molecular target: T1, DacM (Δ2-33DacM; DacM (35-203)) (Mesomycoplasma ovipneumoniae, UniProt A0A014M399)
T1 construct: gene MOVI_0530; N-terminal transmembrane helix removed (Δ2-33); codon-optimized gene in pET28b, E. coli BL21(DE3), N-terminal His6 fusion; homodimer in crystal
T1 sequence (A0A014M399 35-203): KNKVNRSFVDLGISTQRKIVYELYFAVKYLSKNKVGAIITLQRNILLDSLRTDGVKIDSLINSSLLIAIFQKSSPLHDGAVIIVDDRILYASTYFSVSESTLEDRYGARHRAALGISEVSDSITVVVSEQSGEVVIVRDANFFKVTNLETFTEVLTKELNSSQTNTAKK
Experiment: X-ray crystal structure of complex, […] Å; also LC-MS detection of c-di-AMP formation
Assay type: binding
Conditions: activity assay: 2 μM enzyme, 10 mM MgCl2, Tris-HCl pH 7.5, 37 °C, 1 h

SMILES: Nc1ncnc2c1ncn2[C@@H]1O[C@H](COP(=O)(O)OP(=O)(O)O)[C@@H](O)[C@H]1O [ADP]
- X-ray crystal structure of complex, 1.9 Å; also LC-MS detection of c-di-AMP form (crystal grown with ATP as additive, 16 °C, HEPES pH 7.5, active site of protomer B, 0.1 mM ADP): active site of the second DacM protomer (protomer B), was consistent with a bound molecule of ADP

SMILES: Nc1ncnc2c1ncn2[C@@H]1O[C@H](COP(=O)(O)OP(=O)(O)OP(=O)(O)O)[C@@H](O)[C@H]1O [ATP]
- X-ray crystal structure of complex, 1.9 Å; also LC-MS detection of c-di-AMP form (crystal: 16 °C, HEPES pH 7.5, active site of protomer A, 0.1 mM ATP): an ATP molecule, which was clearly bound in the active site of one DacM protomer
